Experimental data as given in patent US20250197382A1, “KIF18A INHIBITOR” (WIGEN BIOMEDICINE TECHNOLOGY (SHANGHAI) CO., LTD., priority 2022, published 2025).

What follows are compounds tested against Recombinant human KIF18A (1-467His-tagged) protein (Homo sapiens (Human), UniProt Q8NI77) (assay: KIF18A enzyme assay (microtubule-stimulated ATPase activity, ADP-Glo)). Settings: 30 nM KIF18A, ATP 75 μM, read-out: inhibitory activity against KIF18A IC50.
Type: biochemical
Method: Biological Example 1. Assay for In Vitro Inhibition of Enzymatic Activity of KIF18A by Compounds of the Present Invention
KIF18A enzyme assay: The enzymatic activity of KIF18A after treatment with the compounds was measured by an assay of microtubule-stimulated ATPase activity. ADP generated from the ATPase reaction was measured in this assay. The compounds were serially diluted 2-fold in DMSO over a range of 22 concentration points. Recombinant human KIF18A (1-467His-tagged) protein was expressed using a baculovirus system. Concentrations of KIF18A protein, microtubules, and ATP in the reaction were optimized for a standardized homogenous enzyme assay using an ADP-Glo kinase/ATPase assay kit. A reaction buffer [(15 mM Tris, pH 7.5), 10 mM MgCl2, 0.01% PluronicF-68, 1 μM paclitaxel, and 30 μg/mL pig microtubules] was prepared. The compounds and KIF18A protein (30 nM) were added to the prepared reaction buffer, and the reaction mixture was incubated at room temperature for 15 min, followed by addition of ATP (Km, 75 μM). The resulting reaction mixture was incubated at room temperature for another 15 min. 5 μL of ADP-Glo reagent and 2.5 μL of the reaction mixture were mixed and the resulting mixture was incubated at room temperature for 40 min. 10 μL of ADP-Glo detection reagent was added and the mixture was incubated at room temperature for 40 min. Luminescence was measured using a microplate reader and compared with that of the DMSO group, and then the inhibition percentages and IC50 values of the compounds were calculated.

Chain of Recombinant human KIF18A (1-467His-tagged) protein (Q8NI77 1-467): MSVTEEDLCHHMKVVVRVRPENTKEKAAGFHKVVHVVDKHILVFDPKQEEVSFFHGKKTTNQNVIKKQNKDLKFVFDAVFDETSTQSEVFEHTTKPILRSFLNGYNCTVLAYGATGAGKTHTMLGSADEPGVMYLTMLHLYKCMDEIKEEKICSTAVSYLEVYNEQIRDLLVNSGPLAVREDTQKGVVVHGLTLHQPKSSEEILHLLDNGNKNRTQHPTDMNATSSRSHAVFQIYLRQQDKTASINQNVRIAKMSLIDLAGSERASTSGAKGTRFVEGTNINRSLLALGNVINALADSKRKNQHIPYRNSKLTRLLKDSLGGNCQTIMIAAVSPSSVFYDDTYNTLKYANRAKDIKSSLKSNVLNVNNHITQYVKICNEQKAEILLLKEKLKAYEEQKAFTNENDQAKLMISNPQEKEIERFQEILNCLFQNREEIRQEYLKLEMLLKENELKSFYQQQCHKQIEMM
Chain of Recombinant human KIF18A (1-467His-tagged) protein (P02550 whole entry partner): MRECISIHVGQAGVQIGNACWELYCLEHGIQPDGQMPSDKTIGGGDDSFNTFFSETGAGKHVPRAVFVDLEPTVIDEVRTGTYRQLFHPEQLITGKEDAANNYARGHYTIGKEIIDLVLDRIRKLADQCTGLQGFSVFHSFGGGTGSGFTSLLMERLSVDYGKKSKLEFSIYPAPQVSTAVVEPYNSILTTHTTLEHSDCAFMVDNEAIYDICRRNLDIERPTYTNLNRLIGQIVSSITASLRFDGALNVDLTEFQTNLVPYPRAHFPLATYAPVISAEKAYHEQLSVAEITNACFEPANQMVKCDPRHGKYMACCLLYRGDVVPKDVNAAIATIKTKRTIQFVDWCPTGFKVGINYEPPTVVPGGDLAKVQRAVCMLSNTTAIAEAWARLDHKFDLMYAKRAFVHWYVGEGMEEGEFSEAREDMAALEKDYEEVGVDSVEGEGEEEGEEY
Chain of Recombinant human KIF18A (1-467His-tagged) protein (P02554 whole entry partner): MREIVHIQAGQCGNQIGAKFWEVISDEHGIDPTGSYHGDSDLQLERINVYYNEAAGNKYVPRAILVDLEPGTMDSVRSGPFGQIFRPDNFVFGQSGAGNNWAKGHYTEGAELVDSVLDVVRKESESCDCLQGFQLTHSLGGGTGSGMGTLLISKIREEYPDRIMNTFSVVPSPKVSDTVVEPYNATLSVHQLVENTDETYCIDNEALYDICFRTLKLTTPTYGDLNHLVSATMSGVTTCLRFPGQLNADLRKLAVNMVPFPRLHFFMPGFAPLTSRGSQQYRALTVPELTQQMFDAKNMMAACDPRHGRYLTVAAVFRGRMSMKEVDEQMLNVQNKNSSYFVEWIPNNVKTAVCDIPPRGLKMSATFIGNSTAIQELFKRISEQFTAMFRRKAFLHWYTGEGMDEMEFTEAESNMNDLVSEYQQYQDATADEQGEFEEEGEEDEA

IC50, ≤ 100 nM:
CC1(F)CCN(c2cc(NC(=O)c3ccc(NS(=O)(=O)CCO)cc3N3CCC4(CC3)CC4)cc3c2OCC3)C1 (centres unmarked) [Compound 8], O=C(Nc1cc2c(c(N3CCC(F)CC3)c1)OCC2)c1ccc(NS(=O)(=O)CCO)cc1N1CCC2(CC1)CC2 [Compound 9], O=C(Nc1cc2c(c(N3CC4CC4C3)c1)OCC2)c1ccc(NS(=O)(=O)CCO)cc1N1CCC2(CC1)CC2 (centres unmarked) [Compound 10], CC(C)(CO)Nc1cc(NC(=O)c2ccc(NS(=O)(=O)CCO)cc2N2CCC3(CC2)CC3)cc2c1OCC2 [Compound 11], O=C(Nc1cc2c(c(N3CCOCC3)c1)OCC2)c1ccc(NS(=O)(=O)CCO)cc1N1CCC2(CC1)CC2 [Compound 12], C[C@@H](CO)S(=O)(=O)Nc1ccc(C(=O)Nc2cc3c(c(N4CCC(F)(F)CC4)c2)OCC3)c(N2CCC3(CC2)CC3)c1 [Compound 13], C[C@H](CO)S(=O)(=O)Nc1ccc(C(=O)Nc2cc3c(c(N4CCC(F)(F)CC4)c2)OCC3)c(N2CCC3(CC2)CC3)c1 [Compound 14], C[C@@H]1CN(c2cc(NC(=O)c3ccc(NS(=O)(=O)[C@@H](C)CO)cc3N3CCC4(CC3)CC4)cc3c2OCC3)CCO1 [Compound 15], C[C@@H]1CN(c2cc(NC(=O)c3ccc(NS(=O)(=O)[C@H](C)CO)cc3N3CCC4(CC3)CC4)cc3c2OCC3)CCO1 [Compound 16], O=C(Nc1cc2c(c(N3CCC(F)(F)CC3)c1)OCC2)c1ccc(S(=O)(=O)NCCO)cc1N1CCC2(CC1)CC2 [Compound 17], C[C@@H]1CN(c2cc(NC(=O)c3ccc(S(=O)(=O)NCCO)cc3N3CCC4(CC3)CC4)cc3c2OCC3)CCO1 [Compound 18], C[C@H]1CN(c2cc(NC(=O)c3ccc(S(=O)(=O)NCCO)cc3N3CCC4(CC3)CC4)cc3c2OCC3)CCO1 [Compound 19], O=C(Nc1cc2c(c(N3CC(F)(F)C3)c1)OCC2)c1ccc(S(=O)(=O)NCCO)cc1N1CCC2(CC1)CC2 [Compound 20], O=C(Nc1cc2c(c(OCCC(F)(F)F)c1)OCC2)c1ccc(S(=O)(=O)NCCO)cc1N1CCC2(CC1)CC2 [Compound 21], O=C(Nc1cc2c(c(N3CCC4(CC4)C3)c1)OCC2)c1ccc(S(=O)(=O)NCCO)cc1N1CCC2(CC1)CC2 [Compound 22], O=C(Nc1cc2c(c(OC3CCC3)c1)OCC2)c1ccc(S(=O)(=O)NCCO)cc1N1CCC2(CC1)CC2 [Compound 23], CC1(F)CCN(c2cc(NC(=O)c3ccc(S(=O)(=O)NCCO)cc3N3CCC4(CC3)CC4)cc3c2OCC3)C1 (centres unmarked) [Compound 24], O=C(Nc1cc2c(c(N3CCC(F)CC3)c1)OCC2)c1ccc(S(=O)(=O)NCCO)cc1N1CCC2(CC1)CC2 [Compound 25], O=C(Nc1cc2c(c(N3CC4CC4C3)c1)OCC2)c1ccc(S(=O)(=O)NCCO)cc1N1CCC2(CC1)CC2 (centres unmarked) [Compound 26], CC(C)(CO)Nc1cc(NC(=O)c2ccc(S(=O)(=O)NCCO)cc2N2CCC3(CC2)CC3)cc2c1OCC2 [Compound 27], O=C(Nc1cc2c(c(N3CCOCC3)c1)OCC2)c1ccc(S(=O)(=O)NCCO)cc1N1CCC2(CC1)CC2 [Compound 28], C[C@@H](CO)NS(=O)(=O)c1ccc(C(=O)Nc2cc3c(c(N4CCC(F)(F)CC4)c2)OCC3)c(N2CCC3(CC2)CC3)c1 [Compound 29], C[C@H](CO)NS(=O)(=O)c1ccc(C(=O)Nc2cc3c(c(N4CCC(F)(F)CC4)c2)OCC3)c(N2CCC3(CC2)CC3)c1 [Compound 30], C[C@@H]1CN(c2cc(NC(=O)c3ccc(S(=O)(=O)N[C@@H](C)CO)cc3N3CCC4(CC3)CC4)cc3c2OCC3)CCO1 [Compound 31], C[C@H](CO)NS(=O)(=O)c1ccc(C(=O)Nc2cc3c(c(N4CCO[C@H](C)C4)c2)OCC3)c(N2CCC3(CC2)CC3)c1 [Compound 32], C[C@@H]1CN(c2cc(C(=O)Nc3ccc(NS(=O)(=O)CCO)cc3N3CCC4(CC3)CC4)cc3c2OCC3)CCO1 [Compound 34], C[C@H]1CN(c2cc(C(=O)Nc3ccc(NS(=O)(=O)CCO)cc3N3CCC4(CC3)CC4)cc3c2OCC3)CCO1 [Compound 35], O=C(Nc1ccc(NS(=O)(=O)CCO)cc1N1CCC2(CC1)CC2)c1cc2c(c(N3CC(F)(F)C3)c1)OCC2 [Compound 36], O=C(Nc1ccc(NS(=O)(=O)CCO)cc1N1CCC2(CC1)CC2)c1cc2c(c(OCCC(F)(F)F)c1)OCC2 [Compound 37], O=C(Nc1ccc(NS(=O)(=O)CCO)cc1N1CCC2(CC1)CC2)c1cc2c(c(N3CCC4(CC4)C3)c1)OCC2 [Compound 38], O=C(Nc1ccc(NS(=O)(=O)CCO)cc1N1CCC2(CC1)CC2)c1cc2c(c(OC3CCC3)c1)OCC2 [Compound 39], CC1(F)CCN(c2cc(C(=O)Nc3ccc(NS(=O)(=O)CCO)cc3N3CCC4(CC3)CC4)cc3c2OCC3)C1 (centres unmarked) [Compound 40], O=C(Nc1ccc(NS(=O)(=O)CCO)cc1N1CCC2(CC1)CC2)c1cc2c(c(N3CCC(F)CC3)c1)OCC2 [Compound 41], O=C(Nc1ccc(NS(=O)(=O)CCO)cc1N1CCC2(CC1)CC2)c1cc2c(c(N3CC4CC4C3)c1)OCC2 (centres unmarked) [Compound 42], CC(C)(CO)Nc1cc(C(=O)Nc2ccc(NS(=O)(=O)CCO)cc2N2CCC3(CC2)CC3)cc2c1OCC2 [Compound 43], O=C(Nc1ccc(NS(=O)(=O)CCO)cc1N1CCC2(CC1)CC2)c1cc2c(c(N3CCOCC3)c1)OCC2 [Compound 44], C[C@@H](CO)S(=O)(=O)Nc1ccc(NC(=O)c2cc3c(c(N4CCC(F)(F)CC4)c2)OCC3)c(N2CCC3(CC2)CC3)c1 [Compound 45], C[C@H](CO)S(=O)(=O)Nc1ccc(NC(=O)c2cc3c(c(N4CCC(F)(F)CC4)c2)OCC3)c(N2CCC3(CC2)CC3)c1 [Compound 46], C[C@@H]1CN(c2cc(C(=O)Nc3ccc(NS(=O)(=O)[C@@H](C)CO)cc3N3CCC4(CC3)CC4)cc3c2OCC3)CCO1 [Compound 47], C[C@@H]1CN(c2cc(C(=O)Nc3ccc(NS(=O)(=O)[C@H](C)CO)cc3N3CCC4(CC3)CC4)cc3c2OCC3)CCO1 [Compound 48], C[C@@H]1CN(c2cc(C(=O)Nc3ccc(S(=O)(=O)NCCO)cc3N3CCC4(CC3)CC4)cc3c2OCC3)CCO1 [Compound 50], C[C@H]1CN(c2cc(C(=O)Nc3ccc(S(=O)(=O)NCCO)cc3N3CCC4(CC3)CC4)cc3c2OCC3)CCO1 [Compound 51], O=C(Nc1ccc(S(=O)(=O)NCCO)cc1N1CCC2(CC1)CC2)c1cc2c(c(N3CC(F)(F)C3)c1)OCC2 [Compound 52], O=C(Nc1ccc(S(=O)(=O)NCCO)cc1N1CCC2(CC1)CC2)c1cc2c(c(OCCC(F)(F)F)c1)OCC2 [Compound 53], O=C(Nc1ccc(S(=O)(=O)NCCO)cc1N1CCC2(CC1)CC2)c1cc2c(c(N3CCC4(CC4)C3)c1)OCC2 [Compound 54], O=C(Nc1ccc(S(=O)(=O)NCCO)cc1N1CCC2(CC1)CC2)c1cc2c(c(OC3CCC3)c1)OCC2 [Compound 55], CC1(F)CCN(c2cc(C(=O)Nc3ccc(S(=O)(=O)NCCO)cc3N3CCC4(CC3)CC4)cc3c2OCC3)C1 (centres unmarked) [Compound 56]
